The values that follow are results of earlier work, collected in patent publication US7485688B2, “Water and oil producing composition” (priority 2004, dated 2009).

SMILES strings stand for the structures. Some results are limits rather than exact numbers.

This data set relates to rats or mice. To be noted: acute oral toxicity in rats or mice.

On to `CC(=O)OC(C)(N=NC(C)(OC(C)=O)c1ccccc1)c1ccccc1` (centres unmarked) [1,1-azobis(1-acetoxy-1-phenylethane)], for which the LD50 is recorded as no less than 5000 mg/kg.

For the molecule `N#CC1(N=NC2(C#N)CCCCC2)CCCCC1` [1,1′-azobis(2-cyclohexane-1-carbonitrile)], the LD50 is 11800 mg/kg.

For the molecule `CC(C)CC(C)(C#N)N=NC(C)(C#N)CC(C)C` (centres unmarked) [2,2′-azobis(2,4-dimethylvaleronitrile)], the LD50 is 6000 mg/kg.

Take `CCC(C)(C#N)N=NC(C)(C#N)CC` (centres unmarked) [2,2′-azobis-2-methylbutyronitrile]: the LD50 was 1316 mg/kg.

On to `COC(=O)C(C)(C)N=NC(C)(C)C(=O)OC` [dimethyl 2,2′-azobisisobutyrate], for which the LD50 is on record as 2369 mg/kg.
